Experimental data from publication PMC13242297, “Drug response profile-based machine learning enables strategic cell line and compound selection for drug development” (Bioinformatics, 2026).
Where two headings read alike, the source gives them in different places.

What was measured:
Type in all cases: cell-based
MCF10A cells = experiment: Cell Titer-Glo 3D cell viability assay, 48 h, MCF10A
Protocol: (§1) Cell Culture: Cell viability was assessed using the MCF7 and MCF10A cell lines. Cells were maintained in relevant media throughout the study, in an incubator set to 37°C and 5% CO2, with media changes every 2–3 days. […] Compound plate preparation: […] Plates were sealed and stored at −4°C prior to use. Viability Assay: […] Plates were incubated for 48 h in a humidified incubator set to 37°C and 5% CO2. […] Cat #G9682). Plates were centrifuged briefly and incubated protected from light for 30 min at 30°C. Luminescence signal was measured using a CLARIOstar Plus microplate reader (BMG Labtech). Data Analysis: Raw relative luminescence unit (RLU) data were de-randomised prior to background subtraction. Viability was determined as a percentage of vehicle control (DMSO only). % Viability = ((Sample RLU—Mean Positive Control) ÷ (Mean Negative Control—Mean Positive Control)) × 100.

MCF7 cells = experiment: Cell Titer-Glo 3D cell viability assay, 48 h, MCF7
Protocol: as §1

[1] = Cell Titer-Glo 3D cell viability assay, 48 h, MCF10A; conditions: human, MCF10A cells, MCF10A, 48 h, % of vehicle control
Protocol: as §1

[2] = Homo sapiens, MCF-10A; read-out: MCF10 IC50 Reached
[3] = Homo sapiens, MCF7; read-out: MCF7 IC50 Reached
[4] = Homo sapiens, MCF-10A; MCF10A, 48 h viability; read-out: IC50

SMILES	IC50 (MCF10A cells; [2])	IC50 (in words) (MCF10A cells; MCF10A, up to […])	IC50 (MCF7 cells; [3])	IC50 (in words) (MCF7 cells; MCF7, up to […])	IC50 (MCF10A cells; [4])	other results
Cc1cc([C@@H](C)Nc2ccccc2C(=O)O)c2nc(N3CCOCC3)cc(=O)n2c1 [AZD 6482]	> 2500 nM	did not reach IC50 values	> 2500 nM	did not reach IC50 values	–	–
CC[C@@H]1C(=O)N(C)c2cnc(Nc3ccc(C(=O)NC4CCN(C)CC4)cc3OC)nc2N1C1CCCC1 [BI 2536]	–	–	–	–	–	viability at 48 h, […] ([1]; 0.0025 uM): 92.4%; viability at 48 h, […] ([1]; 0.025 uM): 67.7%; viability at 48 h, […] ([1]; 0.25 uM): 72.3%; viability at 48 h, […] ([1]; 2.5 uM): 33.9%; IC50 (MCF10A cells; Homo sapiens, MCF-10A, 48 h): ~1000 nM; IC50 (MCF10A cells; Homo sapiens, MCF-10A, read-out: MCF10 IC50 Reached): < 2500 nM; IC50 (MCF7 cells; Homo sapiens, MCF7, 48 h): < 100 nM; IC50 (MCF7 cells; Homo sapiens, MCF7, read-out: MCF7 IC50 Reached): < 2500 nM
Nc1ccn([C@@H]2O[C@H](CO)[C@@H](O)[C@@H]2O)c(=O)n1 [Cytarabine]	> 2500 nM	–	> 2500 nM	–	–	–
Nc1ccn([C@@H]2O[C@H](CO)[C@@H](O)C2(F)F)c(=O)n1 [Gemcitabine]	< 2500 nM	–	> 2500 nM	–	< 250 nM	–
Nc1nc2[nH]cc(CCc3ccc(C(=O)N[C@@H](CCC(=O)O)C(=O)O)cc3)c2c(=O)[nH]1 [Pemetrexed]	> 2500 nM	did not reach IC50 values	> 2500 nM	did not reach IC50 values	–	–
NS(=O)(=O)OC[C@@H]1C[C@@H](n2ccc3c(N[C@H]4CCc5ccccc54)ncnc32)C[C@@H]1O [Pevonedistat]	> 2500 nM	–	< 2500 nM	–	> 2500 nM	IC50 (MCF7 cells; Homo sapiens; MCF7, 48 h viability; read-out: IC50): < 100 nM
